Laboratory results published in patent US20240226026A1, “BRANCHED TAIL LIPID COMPOUNDS AND COMPOSITIONS FOR INTRACELLULAR DELIVERY OF THERAPEUTIC AGENTS” (ModernaTX, Inc., priority 2021, published 2024).

Experiments:
[1] = Particle size (diameter) and polydispersity index of lipid nanoparticles; type: physicochemical; settings: nanoparticles comprising the lipid
Method in brief: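 Size and PDI measured by dynamic light scattering (Zetasizer Nano ZS) in 1×PBS. LNPs comprised DSPC, cholesterol, PEG lipid and ionizable lipid, some with rhodamine-DOPE.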

[2] = Encapsulation efficiency (% EE) of lipid nanoparticles; type: physicochemical; settings: nanoparticles comprising the lipid
Method in brief: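 RNA-loaded LNPs were diluted to ~5 μg/mL in TE buffer (pH 7.5) and incubated 15 min at 37 °C with buffer or 2% Triton X-100 solution, then RiboGreen fluorescence was read (ex ~480/em ~520 nm). After blank subtraction, free RNA % = intact-sample fluorescence ÷ Triton-disrupted fluorescence.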

[3] = Lipid nanoparticle surface hydrophobicity by Generalized Polarization by Laurdan (N-GP); type: physicochemical; settings: for LNP surface hydrophobicity (N-GP*): Table 2b, nanoparticles comprising the lipid
Method in brief: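 Laurdan, a fluorescent aminonaphthalene ketone lipid, is post-inserted into the nanoparticle surface. Its fluorescence spectrum is collected and converted to a normalized Generalized Polarization (N-GP) value as the measure of surface hydrophobicity.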

[4] = Apparent pKa of lipid nanoparticles; type: physicochemical; settings: for Apparent pKa 95% CI: Table 2b, 95% confidence interval
CD-1 mice = test: Expression of hEPO induced by LNPs (mRNA encoding hEPO) administered to mice; type: in vivo; settings: Table 4a, serum, 6 h after intravenous injection; for Avg. hEPO Concentration (mIU/mL)* ± Avg. SD: ELLA Simple Plex Assay
Method in brief: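 LNPs of DSPC, cholesterol, PEG lipid and test ionizable lipid carrying hEPO mRNA were given intravenously. Serum hEPO was measured 6 h post-injection by ELLA Simple Plex immunoassay calibrated to the 2nd IRP WHO standard.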

## CCCCCC(CCCCC)CCOC(=O)CCCCCCCN(CCCCCCCC(=O)OCCC(CCCCC)CCCCC)CCCNC(=O)C1(C)CC1 [Compound 25]
[1]; Table 2b
  Diameter (nm): 163.9 nm
  PDI: 0.22
[1]; Table 3
  Diameter (nm): 89.3 nm
  PDI: 0.154
[2]; Table 2b
  % EE: 26.4%
[2]; Table 3
  % EE: 36.1%
[3]
  LNP surface hydrophobicity (N-GP*): 0.98
[4]
  Apparent pKa 95% CI: 6.865 to 6.928
CD-1 mice
  Avg. hEPO Concentration (mIU/mL)* ± Avg. SD: 5.13E+06 ± 9.33E+04 mIU/mL

## CCCCCC(CCCCC)CCOC(=O)CCCCCCCN(CCCCCCCC(=O)OCCC(CCCCC)CCCCC)CCCNS(=O)(=O)CC [Compound 26]
[1]; Table 2a
  PDI: 0.113
[1]; Table 2a, DSPC, cholesterol, PEG lipid
  Diameter (nm): 84.8 nm
[1]; Table 3
  Diameter (nm): 94.5 nm
  PDI: 0.134
[2]; Table 2a
  % EE: 86.3%
[2]; Table 3
  % EE: 95.0%
[3]; Table 2a, Laurdan, higher N-GP indicates a less polar surface
  Lipid nanoparticle surface hydrophobicity (N-GP*): 1.09
[4]; Table 2a, nanoparticles comprising the lipid
  Apparent pKa: 6.645
CD-1 mice
  Avg. hEPO Concentration (mIU/mL) ± Avg. SD: 1.42E+07 ± 3.66E+05 mIU/mL

## CCCCCC(CCCCC)CCOC(=O)CCCCCCCN(CCCCCCCC(=O)OCCC(CCCCC)CCCCC)CCCNS(=O)(=O)Cc1ccon1 [Compound 27]
[1]; Table 2b
  Diameter (nm): 87.8 nm
  PDI: 0.178
[1]; Table 3
  Diameter (nm): 66.9 nm
  PDI: 0.148
[2]; Table 2b
  % EE: 78.2%
[2]; Table 3
  % EE: 93.5%
[3]
  LNP surface hydrophobicity (N-GP*): 1.00
[4]
  Apparent pKa 95% CI: 6.614 to 6.687
CD-1 mice
  Avg. hEPO Concentration (mIU/mL)* ± Avg. SD: 2.12E+06 ± 7.18E+04 mIU/mL

## CCCCCC(CCCCC)CCOC(=O)CCCCCCCN(CCCCCCCC(=O)OCCC(CCCCC)CCCCC)CCCNc1ncccc1N [Compound 28]
[1]; Table 2b
  Diameter (nm): 84.3 nm
  PDI: 0.202
[1]; Table 3
  Diameter (nm): 90.3 nm
  PDI: 0.161
[2]; Table 2b
  % EE: 99.9%
[2]; Table 3
  % EE: 99.5%
[3]
  LNP surface hydrophobicity (N-GP*): 0.99
[4]
  Apparent pKa 95% CI: 6.545 to 6.670
CD-1 mice
  Avg. hEPO Concentration (mIU/mL)* ± Avg. SD: 6.30E+05 ± 1.83E+04 mIU/mL
